Assays:
Neprilysin = target: T1, Neprilysin (Rattus norvegicus, UniProt P07861); assay: In vitro inhibitory activity against purified rat kidney neutral endopeptidase (NEP) using a fluorometric assay with dansyl-Gly-Phe-Arg as the substrate
T1 sequence (P07861 whole entry): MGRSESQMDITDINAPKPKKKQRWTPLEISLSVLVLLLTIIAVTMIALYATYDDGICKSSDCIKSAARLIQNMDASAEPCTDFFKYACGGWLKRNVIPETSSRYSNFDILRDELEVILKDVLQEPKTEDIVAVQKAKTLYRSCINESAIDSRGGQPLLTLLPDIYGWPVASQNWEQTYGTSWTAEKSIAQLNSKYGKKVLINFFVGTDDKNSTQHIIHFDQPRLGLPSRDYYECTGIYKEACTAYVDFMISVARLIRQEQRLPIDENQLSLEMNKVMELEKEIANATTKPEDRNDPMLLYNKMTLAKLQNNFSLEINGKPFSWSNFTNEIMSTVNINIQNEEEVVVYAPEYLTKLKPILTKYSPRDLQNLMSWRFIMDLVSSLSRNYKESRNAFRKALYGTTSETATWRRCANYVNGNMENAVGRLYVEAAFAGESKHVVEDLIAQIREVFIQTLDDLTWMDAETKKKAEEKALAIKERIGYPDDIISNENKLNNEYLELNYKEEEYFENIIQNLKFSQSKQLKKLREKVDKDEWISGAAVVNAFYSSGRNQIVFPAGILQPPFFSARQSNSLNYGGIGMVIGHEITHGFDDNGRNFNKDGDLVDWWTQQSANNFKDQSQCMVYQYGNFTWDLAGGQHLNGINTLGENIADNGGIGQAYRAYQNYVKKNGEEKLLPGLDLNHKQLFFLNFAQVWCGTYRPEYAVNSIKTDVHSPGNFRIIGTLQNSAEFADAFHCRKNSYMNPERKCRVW

[1] = target: T2, Angiotensin-converting enzyme (Oryctolagus cuniculus, UniProt P12822); assay: In vitro inhibitory activity against Angiotensin I converting enzyme (ACE) isolated from rabbit lung extract using hippuryl-L-histidyl-L-leucine (HHL) as the substrate
T2 sequence (P12822 whole entry): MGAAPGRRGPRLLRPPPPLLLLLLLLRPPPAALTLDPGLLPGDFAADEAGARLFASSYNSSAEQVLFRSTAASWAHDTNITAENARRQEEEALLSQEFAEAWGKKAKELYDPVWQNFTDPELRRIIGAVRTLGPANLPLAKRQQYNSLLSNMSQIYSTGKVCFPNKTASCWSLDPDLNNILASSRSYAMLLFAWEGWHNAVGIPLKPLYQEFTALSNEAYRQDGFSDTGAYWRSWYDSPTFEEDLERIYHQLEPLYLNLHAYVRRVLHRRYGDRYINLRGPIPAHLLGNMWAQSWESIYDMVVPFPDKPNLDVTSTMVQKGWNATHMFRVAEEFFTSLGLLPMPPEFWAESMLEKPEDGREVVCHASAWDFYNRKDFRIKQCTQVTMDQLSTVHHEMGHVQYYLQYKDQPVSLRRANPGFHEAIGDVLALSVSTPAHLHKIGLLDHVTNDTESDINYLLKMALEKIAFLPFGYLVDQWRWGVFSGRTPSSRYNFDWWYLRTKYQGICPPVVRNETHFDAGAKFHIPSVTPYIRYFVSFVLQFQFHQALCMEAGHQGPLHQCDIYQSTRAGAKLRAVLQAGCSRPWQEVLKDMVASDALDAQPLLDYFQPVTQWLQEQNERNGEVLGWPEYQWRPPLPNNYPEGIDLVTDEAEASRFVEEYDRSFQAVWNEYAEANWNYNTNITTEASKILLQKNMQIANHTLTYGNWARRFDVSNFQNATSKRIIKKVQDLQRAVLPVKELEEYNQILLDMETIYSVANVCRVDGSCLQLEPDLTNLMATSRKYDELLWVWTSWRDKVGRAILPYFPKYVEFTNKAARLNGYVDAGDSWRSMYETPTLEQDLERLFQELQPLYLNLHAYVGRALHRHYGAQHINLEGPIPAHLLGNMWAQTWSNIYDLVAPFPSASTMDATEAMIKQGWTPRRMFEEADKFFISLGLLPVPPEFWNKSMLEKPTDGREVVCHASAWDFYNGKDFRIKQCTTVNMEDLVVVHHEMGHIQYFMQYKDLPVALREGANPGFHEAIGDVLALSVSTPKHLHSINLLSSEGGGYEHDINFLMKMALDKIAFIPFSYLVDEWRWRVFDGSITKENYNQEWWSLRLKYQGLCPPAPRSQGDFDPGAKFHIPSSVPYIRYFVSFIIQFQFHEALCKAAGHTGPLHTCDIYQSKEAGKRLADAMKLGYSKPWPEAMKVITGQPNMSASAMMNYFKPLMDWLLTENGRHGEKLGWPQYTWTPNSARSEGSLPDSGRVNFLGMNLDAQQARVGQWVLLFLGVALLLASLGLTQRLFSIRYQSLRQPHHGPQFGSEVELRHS

Rattus norvegicus = organism: Rattus norvegicus; assay: Compound is evaluated for the dose required for 50% inhibition of AI pressor response in normotensive rats; format: functional

Row | IC50 (Neprilysin) | IC50 [1] | SMILES | ED50 (Rattus norvegicus)
1 | 426 nM | 6 nM | O=C(O)CN1C(=O)[C@@H](NC(=O)[C@@H](S)Cc2ccccc2)CCCC12CCCC2 | –
2 | – | 8.2 nM | C[C@H]1CCC[C@H](NC(=O)[C@@H](S)Cc2ccccc2)C(=O)N1CC(=O)O | –
3 | 377 nM | 9.6 nM | O=C(O)CN1C(=O)[C@@H](NC(=O)[C@@H](S)Cc2ccccc2)CCCC12CC2 | –
4 | 63 nM | 12 nM | CC1(C)CCC[C@H](NC(=O)[C@@H](S)Cc2ccccc2)C(=O)N1CC(=O)O [GEMOPATRILAT] | 0.1 µmol/kg
5 | 641 nM | 29 nM | O=C(O)CN1C(=O)[C@@H](NC(=O)[C@@H](S)Cc2ccccc2)CCCC12CCC2 | –

Source: ChEMBL document CHEMBL1132420, “Vasopeptidase inhibitors: incorporation of geminal and spirocyclic substituted azepinones in mercaptoacyl dipeptides” (J Med Chem, 1999)
